# Test results taken from BindingDB's records for doi:10.3109/14756366.2013.813942 (Istituto di Biostrutture e Bioimmagini-CNR, 2014).
# pKi: −log10 of the molar value. Structures can show the parent of a compound that is named as a salt.
# Biological target: T1, Carbonic anhydrase [110-330] (Coastal plain yellowtops, UniProt P46510)
# T1 construct: 110-330
# T1 sequence (P46510 whole entry): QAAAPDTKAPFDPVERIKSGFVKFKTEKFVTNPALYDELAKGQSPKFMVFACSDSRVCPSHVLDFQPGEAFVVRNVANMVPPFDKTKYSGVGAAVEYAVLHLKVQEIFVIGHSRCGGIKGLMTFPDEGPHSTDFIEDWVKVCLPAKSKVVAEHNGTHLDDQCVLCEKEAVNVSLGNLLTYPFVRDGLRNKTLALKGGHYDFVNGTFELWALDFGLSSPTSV
# Assay: Stopped Flow CO2 Hydration Assay
# Settings: pH 8.3; 20 °C
# Procedure: Inhibition constants of carboxylate inhibitors against F. bidentis CA I were determined by a stopped flow CO2 hydration assay at 20 °C.
row,Compound,pKi
1,CCCCC(=O)O,4.11
2,CCCC(=O)O,4.08
3,O=CO,4.01
4,CC(O)C(=O)O (centres undefined),4.13
5,O=C(O)CC(O)C(=O)O (centres undefined),4.03
6,CCC(=O)O,4.04
7,O=C(O)C(=O)O,4.03
8,"O=C(O)c1c(F)c(F)cc(F)c1F [2,3,5,6-F4-Benzoate]",4.29
9,CC(=O)C(=O)O [Pyruvate],< 2.00
10,O=C(O)c1ccccc1 [SODIUM BENZOATE],4.19
11,O=C(O)CC(O)(CC(=O)O)C(=O)O [SODIUM CITRATE],4.38
12,CC(=O)O [sodium acetate],4.02
13,O=C(O)/C=C\C(=O)O [sodium maleate],4.14
14,O=C(O)CC(=O)O [sodium malonate],4.00
